The test system of assay [1] is HMLEshEcad cells. The assay can be described thus: Dose-response viability of HMLEshCntrl vs HMLEshEcad cells (validation of hits, 384-well, Cell-Titer-Glo). Type of assay: cell-based, human. To be noted: FIG. 4A; for selective toxicity towards HMLEshEcad cells relative to HMLEshCntrl cells: dose response on retesting; for IC50 fold lower for HMLEshEcad cells vs HMLEshCntrl cells: 3 day treatment, 8 concentrations. How it is done: (§1) FIG. 4A depicts dose response curves of HMLEshCntrl (A, light gray curve) and HMLEshEcad (A, dark gray curve) cells treated with the 8 compounds identified during the initial screen. 1000 cells of each line were seeded onto 384 well plates and treated with 8 different concentrations of compounds within a 2.5 log range. The cell viability after 3 day treatment was measured by Cell-Titer-Glo. […] FIG. 4B depicts dose response curves of HMLEshCntrl (curve with square data points) and HMLE-Twist (curve with triangular data points) cells treated with the same compounds as in (A). Note that selectivity of Salinomycin, Abamectin, Etoposide and Nigericin (Top, Left-to-Right) is retained even though a different method of EMT induction is used. […] 1 Day after seeding DMSO, Salinomycin (1.25 or 5 μM) or Abamectin (0.25 or 1.25 μM) was added at the indicated concentration. As the GFP vector contains a Blasticidin resistance gene, we used Blasticidin treatment as a positive control for the expansion of GFP-expressing control HMLE cells. After 3 day incubation the mix population of cells were analyzed by flow cytometry and the percentage of GFP-positive cells were determined. […] FIG. 4D depicts dose response curves of transformed HMLERshCntrl (light gray line) and HMLERshEcad (dark gray lines) cells treated with Salinomycin and Abamectin. Dotted line denotes the 50% fraction surviving.
We pursued 8 of the 32 compounds for further study and evaluated their effects across a range of doses.
For each of these compounds, we evaluated the effect on cell viability across a series of doses for sibling cell lines either induced into or not induced into EMT.
Information about the general automated HTS protocol is available online at broad.harvard.edu/chembio/index.html. The assay was initiated by plating 40 μL of medium containing 1000 cells/well into white 384-well opaque-bottom plates (Nunc, Rochester, N.Y.) using an automated plate filler (Bio-Tek μFiller; Winsooki, Vt.) and allowing the cells to adhere for 24 hours. 100 nL of compound stock solutions in dmso was transferred from stock plates into the 384-well assay plates using an automated pin-based compound transfer robot (CyBio CyBi-Well vario; Woburn, Mass.). For most compounds the final concentration in each well was calculated to be 10 uM.
The screen was performed in duplicate. For negative controls, entire dmso-treated control plates were employed, in addition to dmso-only control wells that were incorporated into each compound assay plate. The cells were assayed for luciferase activity with the addition 20 ul of CellTiter-Glo Luminescent Cell Viability Assay solution (Promega). The luminescent signal from each plate was detected using an automated plate reader (Perkin-Elmer Envision 1; Wellesley, Mass.).
(§2) Individual compounds were purchased from Sigma and dissolved in DMSO with the exception of nigericin which was dissolved in 100% ethanol. Activity of the compounds were quantified by generating dose-response curves for HMLE-shCntrl, HMLE-shEcad and HMLE-Twist under the same cell density and culture conditions described for the initial screen, using the 384-well plate based system.

Assay [2] deals with HMLEshEcad cells. The assay can be described thus: Resistance to cytotoxic agents, immortalized HMLEshCntrl vs HMLEshEcad (MTS viability). It counts as cell-based, human. To be noted: three concentrations, FIG. 2B. How it is done:
(§3) FIGS. 2A-2D depict that passage through the EMT leads to resistance to conventional chemotherapy drugs. FIG. 2A depicts dose response curves of transformed HMLERshCntrl (light gray line) and HMLERshEcad (dark gray line) cells treated with Paclitaxel and Doxorubicin. Dotted line denotes the 50% fraction surviving. […] FIG. 2B depicts the response of immortalized cells to chemotherapy drugs. HMLEshCntrl and HMLEshEcad cells were treated with the indicated drugs at three concentrations for 3 days and assayed for viability using the MTS assay. While Doxorubucin, Actinomycin D, Paclitaxel and Campthotecin are chemotherapeutic drugs, Staurosporine is a general kinase inhibitor that potently induce apoptosis. FIGS. 2C and 2D depict paclitaxel treatment leads to selective expansion of a minority cell population that has undergone an EMT. Control HMLE cells and GFP expressing HMLEshEcad cells were mixed at a ratio of 20:1 and seeded onto 6-well plates in triplicate. DMSO or Paclitaxel at 2.5 nm or 10 nm concentration was added onto the mixed cell populations 1 day after seeding followed by a 3 day incubation. The number of GFP-positive cells at the end of treatment were analyzed by flow cytometry. […] Note the increase in GFP positivity from 5% to 14% upon […] Paclitaxel treatment.
However, we postulated that the differential drug sensitivity observed was, rather, a consequence of the respective differentiation states of the immortalized cells from which the cancer cell lines were derived. To directly examine this hypothesis, we treated HMLEsiGFP and HMLEsiEcad cells for a period of […] with a series of chemical compounds at 3 different concentrations each. Included in these compounds were the established chemotherapy drugs Doxorubicin, Paclitaxel, Actinomycin D, Camptothecin as well as a broad kinase inhibitor, Staurosporine.
(§4) Doxorubicin, paclitaxel, actinomycin D, campthotecin and staurosporine were purchased from Sigma and dissolved in dimethyl sulfoxide (dmso). 5000 cells in 100 ul of medium were plated per well in 96-well plates. 24 hrs after seeding, compounds at the indicated concentration were added to wells (5 wells per each concentration). Dmso treatment was used as negative control. Cell viability was measured after 72 hrs using the CellTiter96 AQueous Assay (Promega) according to manufacturer's instructions. Dose response curves were generated with GraphPad Prism software (GraphPad Software, Inc.).

The test system of assay [3] is HMLE-Twist cells. The assay can be described thus: Co-culture of GFP-expressing HMLE cells and unlabelled HMLE-Twist cells, FACS for GFP positivity. The settings on record: FIG. 4C; for GFP-positive fraction relative to DMSO-treated controls: GFP-labeled HMLE + unlabeled HMLE-Twist. It counts as cell-based, human. The method, then:
as §1
To examine the effects of salinomycin and abamectin treatment on heterogeneous populations of epithelial cells that have and epithelial cells that have not undergone EMT, we co-mixed GFP-labeled HMLE cells with unlabeled HMLE-Twist cells, treating the resulting co-cultures with compounds. As a positive control for this experiment we treated co-cultures with blasticidin, which selects for the differentiated HMLE-GFP cells, which harbor a blasticidin-resistance gene.
For the mix experiments, unlabelled and GFP-labeled cells were mixed at the indicated ratios and seeded onto 6-well plates. Triplicate wells were then treated with dmso or the compounds (paclitaxel, salinomycin, abamectin and blasticidin) for 48 hrs. The cells were washed with PBS, trypsinized and analyzed by FACS for GFP positivity.

For assay [4], the system named is HMLERshEcad cells. The assay can be described thus: Resistance to cytotoxic agents, transformed HMLERshCntrl vs HMLERshEcad dose response. It counts as cell-based, human. To be noted: FIG. 2A. How it is done: as §3
Since the HMLERsiEcad cells have a 100-fold increase in the frequency of cells capable of seeding tumors, we examined their response to two commonly used chemotherapy drugs, relative to HMLERsiGFP controls. We treated cultured HMLERsiGFP and HMLERsiEcad cells for a period of 3 days with either doxorubicin or paclitaxel, at various concentrations.
as §4

Assay [5] relates to HMLE-Twist cells. The assay can be described thus: Dose-response viability of HMLEshCntrl vs HMLE-Twist cells. It counts as cell-based, human. To be noted: EMT induced by Twist, FIG. 4B. The method, then:
as §1, §2

The subject of assay [6] is HMLERshEcad cells. The assay can be described thus: Dose response of transformed HMLERshCntrl vs HMLERshEcad cells to screen hits. Type of assay: cell-based, human. The settings on record: range of concentrations, FIG. 4D. The method, then:
as §1

For another assay, the system named is SUM159 cells. The assay can be described thus: FACS of the CD44hi/CD24lo fraction in treated SUM159 cells. Type of assay: cell-based. The settings on record: FIGS. 5C and 5D. The source says: FIG. 5A depicts flow cytometry analysis of Sum159, MDA-MB-231 and T47D cell lines with respect to cell surface expression of CD44 and CD24. Note that while the majority of cells in Sum159 and MDA-MB-231 line contain large amounts of CSCs, T47D cells have very few such cells. FIG. 5B depicts dose response curves of Sum159, MDA-MB-231 and T47D cell treated with Salinomycin.
To further characterize the effects of compound treatment on cancer cells, we conducted FACS analyses on SUM159 cells treated with salinomycin, abamectin, taxol, or DMSO.
The anti-CD44 (clone G44-26) antibody conjugated to APC and the anti-CD24 antibody (clone ML5) conjugated to PE used for FACS analysis were obtained from BD Bioscience and used according to the manufacturer's instructions. Propidium Iodide (5 ug/ml) was included in the staining protocol to distinguish live cells.

The source of these data is patent US20140294729A1, “METHODS FOR IDENTIFICATION AND USE OF AGENTS TARGETING CANCER STEM CELLS” (Whitehead Institute for Biomedical Research, priority 2008, published 2014).

“Also recorded” adds a separate entry of the source. *1 amine or outer side, *2 acyl side, *3 side chain or, on linkers, in order; H or OH if unused. Where a SMILES comes first, the peptide text is derived from it. Bridges are numbered along the chain shown (N, C = ends). Roman numbers before positions name the chains, in order. [ ]: non-standard residue; d: D form. Actinocin(9to1) = Cc1c2oc3c(C)ccc(C(=O)[*:1])c3nc-2c(C(=O)[*:2])c(N)c1=O; NMeV = CN[C@H](C(=O)O)C(C)C; Sar = CNCC(=O)O

With `c1ccc2nc3ccccc3cc2c1` [Acridine], the “selective toxicity towards HMLEshEcad cells relative to HMLEshCntrl cells” value in the assay on HMLEshEcad cells [1] is “do not display such a behaviour”.
As for `Clc1ccccc1C(c1ccccc1)(c1ccccc1)n1ccnc1` [Clotrimazole], in the assay with HMLEshEcad cells [1], the “selective toxicity towards HMLEshEcad cells relative to HMLEshCntrl cells” value is “do not display such a behaviour”.
Same read-out and setting: for `Oc1cccc(O)c1` [Resorcinol] the value was “do not display such a behaviour”.
Take `Cc1c2oc3c(C)ccc(C(=O)N[C@@H]4C(=O)N[C@H](C(C)C)C(=O)N5CCC[C@H]5C(=O)N(C)CC(=O)N(C)[C@@H](C(C)C)C(=O)O[C@@H]4C)c3nc-2c(C(=O)N[C@@H]2C(=O)N[C@H](C(C)C)C(=O)N3CCC[C@H]3C(=O)N(C)CC(=O)N(C)[C@@H](C(C)C)C(=O)O[C@@H]2C)c(N)c1=O` [actinomycin D] (I: T[dV]P[Sar][NMeV] / II: T[dV]P[Sar][NMeV]; ester I:1-I:C, II:1-II:C; linker I:N-II:N via Actinocin(9to1)): the “resistance of HMLEshEcad cells relative to HMLEshCntrl control cells” value in the assay on HMLEshEcad cells [2] was “resistant”; in the assay on HMLEshEcad cells [2] (listed as Actinomycin D), “increased resistance”.
For `CN(CC[C@H](N)CC(=O)N[C@H]1C=C[C@H](n2ccc(N)nc2=O)O[C@@H]1C(=O)O)C(=N)N` [blasticidin], in the assay on HMLE-Twist cells [3], the “GFP-positive fraction relative to DMSO-treated controls” value is recorded as “increase”.
In the case of `CC[C@@]1(O)C(=O)OCc2c1cc1n(c2=O)Cc2cc3ccccc3nc2-1` [camptothecin], the “resistance of HMLEshEcad cells relative to HMLEshCntrl control cells” value was “resistant” in the assay with HMLEshEcad cells [2] and “increased resistance” with HMLEshEcad cells [2] (listed as Camptothecin).
On to `COc1cccc2c1C(=O)c1c(O)c3c(c(O)c1C2=O)C[C@@](O)(C(=O)CO)C[C@@H]3O[C@H]1C[C@H](N)[C@H](O)[C@H](C)O1` [doxorubicin], for which the “IC50 for HMLERsiEcad cells relative to IC50 for HMLERsiGFP cells” value in the assay on HMLERshEcad cells [4] (3 days, various concentrations) is given as “significantly higher”. In addition, the “resistance of HMLERshEcad cells compared to HMLERshCntrl cells” value is “significantly more resistant” in the assay with HMLERshEcad cells [4] and “more resistant” in the assay on HMLERshEcad cells [4] (listed as Doxorubicin). In the assay with HMLEshEcad cells [2], the “resistance of HMLEshEcad cells relative to HMLEshCntrl control cells” value is listed as “increased resistance”.
Consider `CO[C@@H]1C[C@@H](C[C@H]2CC[C@H](C)[C@H]([C@@H](C)C(=O)O)O2)O[C@]2(O[C@](C)([C@H]3CC[C@@](C)([C@@H]4O[C@@H]([C@H]5O[C@@](O)(CO)[C@H](C)C[C@@H]5C)C[C@@H]4C)O3)C[C@H]2C)[C@@H]1C` [nigericin], for which, in the assay with HMLEshEcad cells [1], the “IC50 fold lower for HMLEshEcad cells vs HMLEshCntrl cells” value is listed as ~7 fold and the “selective toxicity towards HMLEshEcad cells relative to HMLEshCntrl cells” value is listed as “weaker selectivity; also recorded: modest selective toxicity”. Also, the “selective toxicity towards HMLEshEcad cells relative to HMLEshCntrl cells” value with HMLEshEcad cells [1] (listed as Nigericin) is recorded as “selective toxicity”. Further, the “selectivity for HMLE-Twist cells vs HMLEshCntrl; dose-response curves compared with HMLEshEcad” value with HMLE-Twist cells [5] was “is retained”.
Take `CN[C@@H]1C[C@H]2O[C@@](C)([C@@H]1OC)n1c3ccccc3c3c4c(c5c6ccccc6n2c5c31)C(=O)NC4` [staurosporine]: the entries for the “resistance of HMLEshEcad cells relative to HMLEshCntrl control cells” value with HMLEshEcad cells [2] and with HMLEshEcad cells [2] (listed as Staurosporine) were “resistant” and “increased resistance”, respectively.
Regarding abamectin, in the assay on HMLEshEcad cells [1], the “IC50 fold lower for HMLEshEcad cells vs HMLEshCntrl cells” value is ~10 fold and the “selective toxicity towards HMLEshEcad cells relative to HMLEshCntrl cells” value is recorded as “moderate to strong selectivity; also recorded: strong specificity”. Further, in the assay with HMLEshEcad cells [1] (listed as Abamectin), the “selective toxicity towards HMLEshEcad cells relative to HMLEshCntrl cells” value was “selective toxicity”. The “selectivity for HMLE-Twist cells vs HMLEshCntrl; dose-response curves compared with HMLEshEcad” value in the assay with HMLE-Twist cells [5] is recorded as “is retained”. The “GFP-positive fraction relative to DMSO-treated controls” value in the assay on HMLE-Twist cells [3] was “increase”. In addition, the “proportion of HMLETwist cells in co-culture with control cells” value with HMLE-Twist cells [3] (Salinomycin 1.25 or 5 μM, Abamectin 0.25 or 1.25 μM) is given as “dose-dependent decrease; also recorded: selection against the GFP-negative HMLE-twist cells”. The “selective toxicity for HMLERshEcad (MT tumorigenic) cells” value with HMLERshEcad cells [6] is reported as “modest but selective toxicity”. Further, the “percent of cells in the CD44hi/CD2410 fraction relative to DMSO controls” value with SUM159 cells is given as “did not significantly alter”.
